Reference: US5594009A, “Fused pyrrolocarbazoles” (priority 1995, dated 1997)

Tests used:
[1] = test system: choline acetyltransferase (ChAT) activity in dissociated rat embryonic spinal cord culture; experiment: Spinal Cord ChAT Activity Assay; type: cell-based; conditions: ChAT measured after 48 hours
[2] = test system: ChAT activity of basal forebrain cultures; experiment: Basal Forebrain ChAT Activity Assay; type: cell-based, rat
Summary of the method: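 Basal forebrain neurons from E17–18 rat embryos were Dispase-dissociated and plated at 5×10^4 cells/well on poly-ornithine/laminin. Cultures were kept in serum-free N2 medium with 0.05% BSA at 37° C. ChAT activity was measured 5 days after plating as the read-out for compound-induced increase.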

[3] = test system: chick dorsal root ganglion neurons; experiment: DRG Neurite Outgrowth Assay; type: cell-based; conditions: compound concentration 200 nM; 48 hours
Experimental: Fused pyrrolocarbazoles promoted nerve fiber (i.e., neurite) outgrowth in explant (i.e., primary) cultures of chick dorsal root ganglion neurons. Dorsal root ganglion (i.e., DRG) nerve fiber outgrowth was increased when a fused pyrrolocarbazole was added to cultures at a concentration of 200 nM (Table IV). Control cultures consisted of: 1) no added NGF or fused pyrrolocarbazole ("Control"), or 2) 50 ng/ml NGF, a neurotrophin known to promote neurite extension in DRG cultures ("NGF").
Methods: Dorsal root ganglia were dissected from chick embryos (embryonic day 9) and individual ganglia were plated on poly-1-ornithine and laminin coated plates. A fused pyrrolocarbazole or 50ng/ml NGF was each added to independent cultures after allowing a 1-2 hour cell attachment period. Explants were cultured for 48 hours in serum-free N2 medium supplemented with 0.05% BSA (Bottenstein et al., PNAS USA 76:514-517 (1979)). Cultures were maintained at 37° C. in a humidified atmosphere, 5% CO2 /95% air. Nerve fiber outgrowth was assessed by the density and length of neurites. It should be apparent to those skilled in the art that neurite extension assays are semi-quantitative and involve a visual comparison between control and experimental neuronal cell cultures (Alberts et al., Molecular Biology of the Cell, 2ed. Garland Publishing, Inc., New York (1989).

[4] = test system: NT-3 induced ChAT activity of rat basal forebrain cultures; experiment: Enhancement of Neurotrophin (NT-3) Activity Assay, ChAT activity in basal forebrain cultures; type: cell-based
Experimental: Fused pyrrolocarbazoles were tested for the ability to enhance the activity of the neurotrophin NT-3 in basal forebrain cultures. ChAT activity was assayed as a measure of cholinergic neuron function and survival. The concentration of NT-3 (100 ng/ml) used in these experiments increased ChAT activity over control cultures (untreated with NT-3 or a fused pyrrolocarbazole) by 140%.
Methods. Basal forebrain cultures were prepared from embryonic rats (embryonic day 17) and dissociated with the neutral protease Dispase™. Cells were plated at a density of 4×10^5 cells/cm^2 on poly-1-ornithine coated plastic tissue culture plates in a mixture of DMEM and F12 media (50/50 v/v GIBCO) supplemented with 5% horse serum and 0.5% fetal bovine serum. Cells were incubated at 37° C. in a humidified atmosphere of 5% CO2 /95% air for 5 days. ChAT activity was measured as described in Example III(A)(1).
Recombinant rat NT-3 was produced by using a recombinant baculovirus expression vector under the control of the polyhedron virus promoter (Fraser, In Vitro Cell. and Dev. Biol. 25:225-235 (1989)). The plasmid pXM-NT3 (Hallbook et al., Neuron 6:845-858 (1991), which contained the rat NT-3 cDNA clone, was provided by Dr. Ira Black (University of Medicine and Dentistry of New Jersey, Piscataway, N.J.). NT-3 cDNA was subcloned into the transfer vector pVL1392 (In Vitrogen Corp., San Diego, Calif.) for recombinant virus production. Recombinant baculovirus was produced as described in Meyer et al. (Meyer at al., J. Neurochem 62:825-833 (1994)).

protein kinase C = experiment: PKC Activity Inhibition Assay; type: biochemical
Experimental: Fused pyrrolocarbazoles inhibited the activity of protein kinase C (Table VI). The protein kinase C assay has been disclosed (Murakata et al., U.S. Pat. No. 4,923,986; Kikkawa et al., J. Biol. Chem. 257:13341-13348 (1982)). The assay was performed with several concentrations of fused pyrrolocarbazoles. The concentration at which protein kinase C was 50% inhibited (IC50) was determined.

trkA tyrosine kinase = trkA tyrosine kinase (Homo sapiens, UniProt P04629); experiment: trkA Tyrosine Kinase Activity Inhibition Assay (ELISA); type: biochemical; conditions: 16 μM ATP, 37° C., 15 min; read-out: INHIBITION OF trkA KINASE IC50
Experimental: These compounds were then tested for the ability to inhibit substrate phosphorylation by the trkA tyrosine kinase.
Plates were washed three times with TBST, followed by two washes with TBS (TBST sans Tween-20). Fused pyrrolocarbazoles were then added at various concentrations to a reaction mixture (50 mM HEPES, pH 7.4, 5 mM MnCl2, 5 mM MgCl2, 140 mM NaCl, 16 μM ATP, and 15 ng trkA in a total volume of 1001 μL.). As a negative control, 100 mM EDTA was included in the reaction solution. The plates were then incubated at 37° C. for 15 min. The detection antibody, monoclonal anti-phosphotyrosine antibody (UBI), was added at a dilution of 1:2000 in TBST, and incubated for 1 hour at 37° C. Plates were then washed three times with TBST, followed by a 1 hour incubation at 37° C. with alkaline phosphatase-labeled goat anti-mouse IgG (1:2000 in TBST (Bio-Rad)). After washing three times with TBST followed by two washes with TBS, a colored product was produced by using NADPH as substrate for alkaline phosphatase, and the coupled reactions of diaphorase and alcohol dehydrogenase (GIBCO-BRL ELISA amplification system). The colored product was read at 490 nm in a microplate reader (Biotek).

protein kinase C ("PKC") = conditions: cited from earlier work
trk tyrosine kinase = conditions: cited from earlier work
[5] = test system: transcription of IFNα genes; conditions: not associated with the inhibition of protein kinase C; cited from earlier work
human keratinocytes = conditions: cited from earlier work

Sequence of trkA tyrosine kinase (P04629 33-796): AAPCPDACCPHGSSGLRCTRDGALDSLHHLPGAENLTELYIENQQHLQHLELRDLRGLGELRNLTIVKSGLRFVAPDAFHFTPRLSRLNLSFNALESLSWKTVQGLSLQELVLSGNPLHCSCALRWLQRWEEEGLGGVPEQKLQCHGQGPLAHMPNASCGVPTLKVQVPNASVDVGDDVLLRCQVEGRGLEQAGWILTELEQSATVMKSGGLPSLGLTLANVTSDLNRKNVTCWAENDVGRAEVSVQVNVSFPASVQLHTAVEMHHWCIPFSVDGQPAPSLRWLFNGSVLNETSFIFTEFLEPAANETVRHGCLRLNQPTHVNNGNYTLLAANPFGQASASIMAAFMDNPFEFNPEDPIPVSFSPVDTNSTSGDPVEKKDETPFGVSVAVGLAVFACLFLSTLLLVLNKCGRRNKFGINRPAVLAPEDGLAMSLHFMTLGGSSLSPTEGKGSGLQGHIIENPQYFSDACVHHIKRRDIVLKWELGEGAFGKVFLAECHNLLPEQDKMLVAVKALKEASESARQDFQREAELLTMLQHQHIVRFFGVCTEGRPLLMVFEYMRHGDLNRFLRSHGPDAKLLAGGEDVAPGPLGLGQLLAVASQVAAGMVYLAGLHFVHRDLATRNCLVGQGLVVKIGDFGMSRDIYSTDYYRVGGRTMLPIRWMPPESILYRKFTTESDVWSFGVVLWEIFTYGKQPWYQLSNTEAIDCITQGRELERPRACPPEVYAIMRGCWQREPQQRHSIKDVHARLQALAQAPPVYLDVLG

O=C1NC(=O)c2c1c1c(c3[nH]c4ccccc4c23)Cc2ccccc2-1 [Compound I-1, 6H, 12H, 13H-Indeno[2,3-a]pyrrolo[3,4-c]carbazole-5,7(5H, 7H))-dione]
Spinal Cord ChAT Activity, % of Control, untreated cultures [1]: 148 % of Control | ChAT Activity (% of Control) ([2]; 100 nM): inactive | ChAT Activity (% of Control) ([2]; 250 nM): inactive | ChAT Activity (% of Control) ([2]; 500 nM): inactive | DRG Neurite Outgrowth [3]: modest number of neurites | ChAT activity in the absence of NT-3 ([4]; compound added alone to basal forebrain neurons, no NT-3): no effect on ChAT activity | ChAT activity in the presence of NT-3 ([4]; with 100 ng/ml NT-3): enhanced ChAT activity | IC50 (protein kinase C): 70 nM | IC50 (trkA tyrosine kinase): > 1000 nM

COC(=O)[C@@]1(O)C[C@H]2O[C@]1(C)n1c3ccccc3c3c4c(c5c6ccccc6n2c5c31)C(=O)NC4 [Compound K-252a]
inhibition of protein kinase C (protein kinase C ("PKC")): inhibitor | inhibition of trk tyrosine kinase (trk tyrosine kinase): inhibitor | inhibition of transcription of IFNα genes [5]: inhibit the transcription of IFNα genes | NGF-stimulated proliferation of human keratinocytes (human keratinocytes): prevents such proliferation

NGF: a neurotrophin known to promote neurite extension in DRG cultures
proliferation of human keratinocytes (human keratinocytes): stimulates the proliferation of human keratinocytes in culture
